According to patent publication US9539223B2, “Methods for treating bacterial infections” (Neoculi Pty Ltd., priority 2013, dated 2017):
In brackets after ≈: the same amount, converted by molar mass. Several values for one entry are separate records, joined by “and”; a condition that tells them apart may be missing. Equal values may be shown once.

Experiments:
[1] = tested on: Staphylococcus spp. Strain MK1; assay: Checkerboard synergy study, Staphylococcus spp. MK1; format: cell-based; set-up: key to FIC1 (last-but-one column; FIC index of antibiotic + NCL812): FICI: <0.5 synergy, 0.5-4 no effect, >4 antagonism; settings: Staphylococcus spp. Strain MK1
Experimental: (§1) Firstly, the MIC of each antibiotic alone was determined in accordance to CLSI standard guidelines.
(§2) According to the checkerboard guidelines, Synergy (S) was defined as an FICI<0.5. No effect (NE) was defined as 0.5<FICI<4. Antagonism (A) was defined as a 4<FICI.

S. aureus ATCC 29213 [2] = assay: ATP release assay (CellTiter-Glo); format: cell-based, Staphylococcus aureus; settings: 8-fold the MIC (256 μg/ml), 30 min exposure
From the text: The CellTiter-Glo Luminescent Cell Viability Assay (Promega) was utilized to measure the leakage of ATP from bacteria. […] The negative control received 2% DMSO, which represented the final DMSO concentration in each assay. […] Results were expressed as ATP concentration released to the medium (μM).

S. aureus strain T3-29 = assay: Checkerboard synergy study, S. aureus T3-29; format: cell-based, Staphylococcus aureus
Experimental: as §1, §2

S. pneumoniae [3] = assay: MIC by micro-broth dilution, pneumococcal isolates; format: cell-based, Streptococcus pneumoniae
Experimental: (§3) [Micro-broth dilutions and 96-well trays are prepared by the following method: 90 μL of 4% LHB: CAMHB is aliquotted into all wells using a multichannel pipette. 90 μl of working antimicrobial stocks were no serial diluted down the tray by a 1:2 dilution. Negative broth controls and dilution control were taken into account when planning the set up of a 96-well tray.] 10 μL of bacterial suspension was then added to the appropriate wells in the 96 well tray. Appropriate positive (no antimicrobial), negative (no antimicrobial or bacteria) and negative dilution (a serial dilution control of antimicrobial and broth) controls were included in each assay. […] The MBC was determined by a 99.95% inhibition of S. pneumoniae, taking into account the dilution factor. MICs and MBCs were determined in quadruplicate and the mode was taken as the representative value. The MIC50, MIC90 and MIC range and MBC50, MBC90 and MBC range were determined according to CLSI standards. The MIC50 and MIC90, or MBC50 and MBC90, are defined by the lowest concentrations which, when all the MICs and MBCs of the isolates are arranged from lowest to highest, inhibited the 50th and 90th percentile of the total amount of isolates, respectively.

[4] = tested on: methicillin-resistant Staphylococcus aureus (MRSA); assay: Minimum inhibitory concentration assay (CLSI), MRSA isolates; format: cell-based; settings: ATCC control strains
Experimental: Minimum inhibitory concentration tests were performed according to CLSI Standards (CLSI 2008). […] The solutions were then serially diluted across the row, leaving 2 columns for positive and negative controls. A bacterial suspension was prepared by adding fresh colonies obtained from an overnight culture on Sheep Blood Agar (SBA) to a 9.1 g/L saline solution. This suspension was adjusted to a concentration of between 4×10^8 and 5×10^8 CFU/mL. Concentration of the suspension was determined by measuring optical density (OD) using a spectrophotometer at a wavelength of 600 nm where the correct concentration was determined to have an optical density of between 1.00 and 1.20. One milliliter of this suspension was added to 9 mL of saline before being added to all wells, excluding the negative control wells, in 10 μL volumes giving a final concentration of between 4×10^5 and 5×10^5 CFU/mL in each well. The tests were then incubated for 24 hours at 37° C. and then assessed both visually and using OD readings from a microplate reader at a wavelength of 600 nm. These tests were performed in duplicate but repeated if discrepancies were observed.
The minimum inhibitory concentration (MIC) was determined to be the lowest concentration of antibiotic that prevented growth of bacteria both visually and using OD readings.

[5] = tested on: methicillin-resistant and methicillin-susceptible Staphylococcus aureus; assay: MIC by broth microdilution (CLSI), S. aureus clinical isolates; format: cell-based; settings: positive control
Experimental: Microtiter plates containing two-fold dilutions of each antimicrobial agent were inoculated with ˜10^5-CFU/ml of each isolate in a 100-μl final volume. Plates were incubated for 24-h at 37° C. Turbidity (absorbance at OD600) was measured using a Bio-Rad Benchmark Plus microplate spectrophotometer in Microplate Manager® version 5.2.1 (Bio-Rad). Minimum inhibitory concentration (MIC) endpoints were defined as the lowest antimicrobial concentration assessed by the spectrophotometer that inhibited bacterial growth. ATCC 49775 was included in the isolate collection as a control organism using breakpoints defined by the CLSI. The MIC50, MIC90 (concentrations that inhibited growth of the lower 50% and 90% of total organisms, respectively), and MIC range (minimum and maximum) were calculated to profile the antimicrobial susceptibility of the isolate collection.

S. pneumoniae [6] = assay: MBC, pneumococcal isolates; format: cell-based, Streptococcus pneumoniae; settings: isolate WCH16
Experimental: as §3

S. aureus ATCC 29213 [7] = assay: MIC assay (CLSI M07-A8) in Mueller Hinton II Broth; format: cell-based, Staphylococcus aureus; settings: S. aureus ATCC 29213, quality control agent
From the text: The MIC assay method followed the procedure described by the Clinical and Laboratory Standards Institute, or CLSI (Clinical and Laboratory Standards Institute). […] The medium employed for the MIC assay was Mueller Hinton II Broth (MHB II—Becton Dickinson, Sparks, Md.; Cat No 212322; Lot 9044411). S. aureus ATCC 29213 served as the quality control strain, and linezolid was utilized as the quality control antibiotic to validate the assay.

Cc1cc(NS(=O)(=O)c2ccc(N)cc2)no1 [Sulfamethoxazole, sulfamethoxazole]
Antibiotic MIC Alone [1]: 8 µg/mL | Antibiotic MIC With NCL812 [1]: 4 µg/mL | FIC1 (last-but-one column; FIC index of antibiotic + NCL812) [1]: 0.75 and 1 | FIC1 = MIC of antibiotic in combination with NCL812/MIC of antibiotic alone [1]: 0.5 | Result (interaction of antibiotic with NCL812) [1]: NE (No effect (NE) was defined as 0.5<FICI<4)

polymyxin B [reference compound]
maximal release of ATP (S. aureus ATCC 29213 [2]): approximately 0.34 μM

CC1(C)S[C@@H]2[C@H](NC(=O)Cc3ccccc3)C(=O)N2[C@H]1C(=O)O [Penicillin G, penicillin G]
Antibiotic MIC Alone [1]: 0.125 µg/mL and 0.25 µg/mL | Antibiotic MIC With NCL812 [1]: 0.062 µg/mL and 0.031 µg/mL | FIC1 (last-but-one column; FIC index of antibiotic + NCL812) [1]: 1 and 0.625 | Result (interaction of antibiotic with NCL812) [1]: NE (No effect (NE) was defined as 0.5<FICI<4)

CN(C)[C@@H]1C(O)=C(C(N)=O)C(=O)[C@@]2(O)C(O)=C3C(=O)c4c(O)cccc4[C@@](C)(O)[C@H]3C[C@@H]12 [Tetracycline, tetracycline]
FIC1 (last-but-one column; FIC index of antibiotic + NCL812) (S. aureus strain T3-29): 0.75 and 0.62 | Result (interaction of antibiotic with NCL812) (S. aureus strain T3-29): NE (No effect (NE) was defined as 0.5<FICI<4)

gentamicin
Antibiotic MIC Alone [1]: 1 µg/mL and 0.5 µg/mL | Result (interaction of antibiotic with NCL812) [1]: NE (No effect (NE) was defined as 0.5<FICI<4)

CC[C@H]1OC(=O)[C@H](C)[C@@H](O[C@H]2C[C@@](C)(OC)[C@@H](O)[C@H](C)O2)[C@H](C)[C@@H](O[C@@H]2O[C@H](C)C[C@H](N(C)C)[C@H]2O)[C@](C)(O)C[C@@H](C)C(=O)[C@H](C)[C@@H](O)[C@]1(C)O [Erythromycin, erythromycin]
MIC (S. pneumoniae [3]; Streptococcus pneumoniae): 0.00275 µg/mL (≈ 0.00375 µM) | Result (interaction of antibiotic with NCL812) (S. aureus strain T3-29): NE (No effect (NE) was defined as 0.5<FICI<4)

O=C(N[C@H](CO)[C@H](O)c1ccc([N+](=O)[O-])cc1)C(Cl)Cl [Chloramphenicol, chloramphenicol]
FIC1 (last-but-one column; FIC index of antibiotic + NCL812) (S. aureus strain T3-29): 0.75 | Result (interaction of antibiotic with NCL812) (S. aureus strain T3-29): NE (No effect (NE) was defined as 0.5<FICI<4)

CC1(C)S[C@@H]2[C@H](NC(=O)[C@H](N)c3ccccc3)C(=O)N2[C@H]1C(=O)O [Ampicillin]
MIC values against CLSI recommendations [4]: within the normal range expected | MIC values against CLSI guidelines [5]: within the normal range expected | MIC Range (S. pneumoniae [3]; 20 S. pneumoniae strains): 0.011 to 0.09 µg/mL | MIC (S. pneumoniae [3]; Streptococcus pneumoniae): 0.023 µg/mL (≈ 0.0658 µM) | MIC50 (S. pneumoniae [3]; Streptococcus pneumoniae): 0.023 µg/mL (≈ 0.0658 µM) | MIC90 (S. pneumoniae [3]; Streptococcus pneumoniae): 0.023 µg/mL (≈ 0.0658 µM) | MIC (S. pneumoniae [3]; isolate EF3030): 0.023 | MIC (S. pneumoniae [3]; isolate WCH184): 0.045 | MBC (S. pneumoniae [6]): Autolysis | Result (interaction of antibiotic with NCL812) (S. aureus strain T3-29): NE (No effect (NE) was defined as 0.5<FICI<4)

CC(=O)NC[C@H]1CN(c2ccc(N3CCOCC3)c(F)c2)C(=O)O1 [Linezolid, linezolid]
MIC against CLSI quality control range (S. aureus ATCC 29213 [7]): within the CLSI-established quality control range

O=C(O)c1cn(C2CC2)c2cc(N3CCNCC3)c(F)cc2c1=O [Ciprofloxacin, ciprofloxacin]
Antibiotic MIC Alone [1]: 0.125 µg/mL and 0.25 µg/mL | FIC1 (last-but-one column; FIC index of antibiotic + NCL812) [1]: 0.75 and 0.525 and 0.625 and 0.562 | Result (interaction of antibiotic with NCL812) [1]: NE (No effect (NE) was defined as 0.5<FICI<4)
